# Patent US20250176599A1, “FLAVOR COMPOSITION AND FOOD AND BEVERAGE” (TAKASAGO INTERNATIONAL CORPORATION, priority 2021, published 2025)
# Legend:
# [1] = Sensory evaluation of aqueous solution I containing (E)-2-nonenal 1 ppb: off-flavor intensity and masking component intensity; conditions: average panel score
# Method in brief: (§1)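 Scores run 0–4 for two attributes: off-flavor intensity, judged against the unmasked spiked solution (4) and degradant-free water (0), and nootkatone's own perceptibility, judged absolutely. A panel of eight experienced tasters evaluated aqueous solutions of the degradation component containing added nootkatone.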
# [2] = Sensory evaluation of aqueous solution II containing (E)-2-octenal 10 ppb: off-flavor intensity and masking component intensity; conditions: average panel score
# Method in brief: as §1
# [3] = Sensory evaluation of aqueous solution III containing 1-octen-3-one 1 ppb: off-flavor intensity and masking component intensity; conditions: average panel score
# Method in brief: as §1
# [4] = Sensory evaluation of aqueous solution IV containing 1,5-octadien-3-one 100 ppt: off-flavor intensity and masking component intensity; conditions: aqueous solution IV, average panel score
# Method in brief: as §1
# [5] = Sensory evaluation of aqueous solution V containing 1-octen-3-ol 10 ppb: off-flavor intensity and masking component intensity; conditions: average panel score
# Method in brief: as §1
# [6] = Sensory evaluation of aqueous solution VI containing 1,5-octadien-3-ol 10 ppb: off-flavor intensity and masking component intensity; conditions: aqueous solution VI, average panel score
# Method in brief: as §1
# [7] = Overall conclusion of the sensory evaluation across aqueous solutions I to VI
# Method in brief: as §1
compound,measurement,setting,value
CC(=O)/C(C)=C/C1C(C)=CCCC1(C)C (centres unmarked) [γ-methyl ionone],Masking Component Intensity,[1]; 0.01 ppt added,0.3
same,Off-Flavor Intensity,[1]; 0.01 ppt added,3.8
same,Masking Component Intensity,[1]; 0.1 ppt added,0.6
same,Off-Flavor Intensity,[1]; 0.1 ppt added,3.4
same,Masking Component Intensity,[1]; 1 ppb added,2.0
same,Off-Flavor Intensity,[1]; 1 ppb added,2.1
same,Masking Component Intensity,[1]; 1 ppm added,4.0
same,Off-Flavor Intensity,[1]; 1 ppm added,0.3
same,Masking Component Intensity,[1]; 1 ppt added,0.8
same,Off-Flavor Intensity,[1]; 1 ppt added,3.1
same,Masking Component Intensity,[1]; 10 ppb added,2.5
same,Off-Flavor Intensity,[1]; 10 ppb added,1.6
same,Masking Component Intensity,[1]; 10 ppt added,1.1
same,Off-Flavor Intensity,[1]; 10 ppt added,2.5
same,Masking Component Intensity,[1]; 100 ppb added,3.5
same,Off-Flavor Intensity,[1]; 100 ppb added,1.0
same,Masking Component Intensity,[1]; 100 ppt added,1.5
same,Off-Flavor Intensity,[1]; 100 ppt added,2.4
same,Masking Component Intensity,[2]; 0.01 ppt added,0.4
same,Off-Flavor Intensity,[2]; 0.01 ppt added,3.3
same,Masking Component Intensity,[2]; 0.1 ppt added,0.5
same,Off-Flavor Intensity,[2]; 0.1 ppt added,3.1
same,Masking Component Intensity,[2]; 1 ppb added,2.1
same,Off-Flavor Intensity,[2]; 1 ppb added,1.5
same,Masking Component Intensity,[2]; 1 ppm added,4.0
same,Off-Flavor Intensity,[2]; 1 ppm added,0.3
same,Masking Component Intensity,[2]; 1 ppt added,0.8
same,Off-Flavor Intensity,[2]; 1 ppt added,2.8
same,Masking Component Intensity,[2]; 10 ppb added,2.8
same,Off-Flavor Intensity,[2]; 10 ppb added,1.1
same,Masking Component Intensity,[2]; 10 ppt added,1.3
same,Off-Flavor Intensity,[2]; 10 ppt added,2.5
same,Masking Component Intensity,[2]; 100 ppb added,3.8
same,Off-Flavor Intensity,[2]; 100 ppb added,0.6
same,Masking Component Intensity,[2]; 100 ppt added,1.5
same,Off-Flavor Intensity,[2]; 100 ppt added,2.0
same,Masking Component Intensity,[3]; 0.01 ppt added,0.3
same,Off-Flavor Intensity,[3]; 0.01 ppt added,3.4
same,Masking Component Intensity,[3]; 0.1 ppt added,0.3
same,Off-Flavor Intensity,[3]; 0.1 ppt added,3.3
same,Masking Component Intensity,[3]; 1 ppb added,1.6
same,Off-Flavor Intensity,[3]; 1 ppb added,2.0
same,Masking Component Intensity,[3]; 1 ppm added,4.0
same,Off-Flavor Intensity,[3]; 1 ppm added,0.3
same,Masking Component Intensity,[3]; 1 ppt added,0.4
same,Off-Flavor Intensity,[3]; 1 ppt added,3.1
same,Masking Component Intensity,[3]; 10 ppb added,2.5
same,Off-Flavor Intensity,[3]; 10 ppb added,1.5
same,Masking Component Intensity,[3]; 10 ppt added,0.6
same,Off-Flavor Intensity,[3]; 10 ppt added,2.8
same,Masking Component Intensity,[3]; 100 ppb added,3.5
same,Off-Flavor Intensity,[3]; 100 ppb added,1.1
same,Masking Component Intensity,[3]; 100 ppt added,0.9
same,Off-Flavor Intensity,[3]; 100 ppt added,2.4
same,Masking Component Intensity,[4]; 0.01 ppt added,0.0
same,Off-Flavor Intensity,[4]; 0.01 ppt added,3.8
same,Masking Component Intensity,[4]; 0.1 ppt added,0.0
same,Off-Flavor Intensity,[4]; 0.1 ppt added,3.5
same,Masking Component Intensity,[4]; 1 ppb added,1.5
same,Off-Flavor Intensity,[4]; 1 ppb added,2.1
same,Masking Component Intensity,[4]; 1 ppm added,4.0
same,Off-Flavor Intensity,[4]; 1 ppm added,0.6
same,Masking Component Intensity,[4]; 1 ppt added,0.3
same,Off-Flavor Intensity,[4]; 1 ppt added,3.4
same,Masking Component Intensity,[4]; 10 ppb added,2.3
same,Off-Flavor Intensity,[4]; 10 ppb added,1.6
same,Masking Component Intensity,[4]; 10 ppt added,0.5
same,Off-Flavor Intensity,[4]; 10 ppt added,3.3
same,Masking Component Intensity,[4]; 100 ppb added,3.4
same,Off-Flavor Intensity,[4]; 100 ppb added,1.0
same,Masking Component Intensity,[4]; 100 ppt added,0.6
same,Off-Flavor Intensity,[4]; 100 ppt added,2.8
same,Masking Component Intensity,[5]; 0.01 ppt added,0.0
same,Off-Flavor Intensity,[5]; 0.01 ppt added,3.5
same,Masking Component Intensity,[5]; 0.1 ppt added,0.4
same,Off-Flavor Intensity,[5]; 0.1 ppt added,3.3
same,Masking Component Intensity,[5]; 1 ppb added,2.3
same,Off-Flavor Intensity,[5]; 1 ppb added,1.9
same,Masking Component Intensity,[5]; 1 ppm added,4.0
same,Off-Flavor Intensity,[5]; 1 ppm added,0.1
same,Masking Component Intensity,[5]; 1 ppt added,0.4
same,Off-Flavor Intensity,[5]; 1 ppt added,3.3
same,Masking Component Intensity,[5]; 10 ppb added,2.9
same,Off-Flavor Intensity,[5]; 10 ppb added,1.5
same,Masking Component Intensity,[5]; 10 ppt added,1.0
same,Off-Flavor Intensity,[5]; 10 ppt added,2.6
same,Masking Component Intensity,[5]; 100 ppb added,3.8
same,Off-Flavor Intensity,[5]; 100 ppb added,0.8
same,Masking Component Intensity,[5]; 100 ppt added,1.4
same,Off-Flavor Intensity,[5]; 100 ppt added,2.1
same,Masking Component Intensity,[6]; 0.01 ppt added,0.4
same,Off-Flavor Intensity,[6]; 0.01 ppt added,3.1
same,Masking Component Intensity,[6]; 0.1 ppt added,0.9
same,Off-Flavor Intensity,[6]; 0.1 ppt added,3.1
same,Masking Component Intensity,[6]; 1 ppb added,1.9
same,Off-Flavor Intensity,[6]; 1 ppb added,1.9
same,Masking Component Intensity,[6]; 1 ppm added,4.0
same,Off-Flavor Intensity,[6]; 1 ppm added,0.5
same,Masking Component Intensity,[6]; 1 ppt added,1.0
same,Off-Flavor Intensity,[6]; 1 ppt added,2.8
same,Masking Component Intensity,[6]; 10 ppb added,2.8
same,Off-Flavor Intensity,[6]; 10 ppb added,1.3
same,Masking Component Intensity,[6]; 10 ppt added,1.3
same,Off-Flavor Intensity,[6]; 10 ppt added,2.4
same,Masking Component Intensity,[6]; 100 ppb added,3.4
same,Off-Flavor Intensity,[6]; 100 ppb added,0.9
same,Masking Component Intensity,[6]; 100 ppt added,1.6
same,Off-Flavor Intensity,[6]; 100 ppt added,2.1
same,"concentration that masks the off-flavor and does not affect the flavor of the food and/or beverage itself, lower limit",[7],≥ 1 ppt
same,"concentration that masks the off-flavor and does not affect the flavor of the food and/or beverage itself, upper limit",[7],≤ 10 ppb
